Experimental data from patent US20090118173A1, “TREATMENT AND PREVENTION OF INFLAMMATORY BOWEL DISEASES” (priority 2006, published 2009).

Tests used:
[1] = tested on: human MHC class II molecules; settings: human B cell line under stress (nutrient deprivation); peptide of the same sequence; cited from earlier work
[2] = tested on: primed spleen and draining lymph node cells; assay: T-cell proliferation (tritium incorporation) of peptide-pool primed spleen and draining lymph node cells re-stimulated in vitro with individual peptides; format: cell-based, Balb/c mice; settings: mice immunized with peptide pools, in vitro re-stimulation with the individual peptide
Excerpt: (§1) To define the epitopes more precisely, we divided the 13 peptides, based on the degree of sequence identity between bacterial and the homologous mouse Hsp70s, in three pools (pool A: non-conserved peptides, pool B: conserved peptides comprising at least about 80% amino acid identity to the mouse homologue, and pool C: highly conserved peptides comprising >86% amino acid identity to the mouse homologue, see below) and immunized 10-12 weeks old Balb/c mice twice with a 2 week interval (intraperitoneally and subcutaneously) with the peptide pools. 10 days after the second immunization primed spleen and draining lymph node cells were re-stimulated in vitro with all the 13 individual peptides after which we measured T-cell proliferation (tritium incorporation), IFNγ, IL10, IL4 and IL5 production (cytokine production).

[3] = tested on: bacterially primed T-cells; assay: Cross reactivity of bacterial peptide primed T cells with corresponding mouse homologue peptides; format: cell-based, Balb/c mice; settings: proliferation and cytokine production
Excerpt: To test cross-reactivity, i.e. the capacity of selected peptides to induce T cells cross-reactive with homologous self-proteins, the following method can be used (see also Examples):
Any sign of activation (see above) can be taken as an indication of cross-reactivity of the test (e.g. microbial) epitope with the self protein/peptide. Initial testing can be carried out with a synthetic peptide based on the sequence of the self protein/peptide, but final proof for cross-reactivity with the protein/peptide itself, either in isolated form or expressed on cells, is preferably obtained in T cell activation tests with (stressed) antigen presenting cells (over)expressing and presenting the self HSP-peptide, in order to exclude cryptic epitopes.
as §1

[4] = tested on: primed spleen and draining lymph node cells; assay: Cytokine production (IFNγ, IL10, IL4, IL5) of peptide-pool primed spleen and draining lymph node cells re-stimulated in vitro; format: cell-based, Balb/c mice; settings: mice immunized with peptide pools; in vitro re-stimulation with the individual peptide
Excerpt: as §1

| Sequence | elution from human MHC class II molecules [1] | T-cell proliferation response [2] | Cross-reactivity of bacterially primed T-cells with mouse homologue peptide [3] | IFN-gamma [4] | IL-10 [4] |
| --- | --- | --- | --- | --- | --- |
| VLRIINEPTAAAIAY (listed as Mus musculus) [mC1b] | eluted from human MHC class II molecules |  |  |  |  |
| KPFQSVIADTGISVS (listed as Mycobacterium tuberculosis) [Peptide A1, mycobacterial hsp70 peptide, pool A (not conserved)] |  | increased | no | increased | augmented |
| DEVVAVGAALQAGVL (listed as Mycobacterium tuberculosis) [Peptide B1, mycobacterial hsp70 peptide, pool B (conserved)] |  | increased | induced cross reactive T cell responses and Yes | increased | No |
| VLRIVNEPTAAALAY (listed as Mycobacterium tuberculosis) [Peptide C1] |  | increased | induced cross reactive T cell responses and yes | increased | augmented |
